In PMC5078989, “Targeted inhibition of the COP9 signalosome for treatment of cancer” (Nature Communications, 2016):

Tested on: panel of cancer cell lines
Assay: Cell viability (CellTiter-Glo) dose-response across cancer cell line panel;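 on EC50: after 72 h compound incubation with CellTiter-Glo ATP readout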
Assay type: cell-based, human
Settings: for EC50: Homo sapiens
Excerpt: Next, we explored the effect of CSN5 inhibition on the viability of cancer cells. To obtain a comprehensive picture, we generated dose–response curves with a CSN5 inhibitor across more than 500 cancer cell lines in a previously described standardized setting[47] (Supplementary Data 1).
A standardized CellTiter-Glo Assay (Promega #G7570) based on the quantification of ATP was applied according to the manufacturer's protocol to measure the amount of viable cells in culture. In brief, cells were seeded into 384-well plates at optimal density for each cell line. After 4 h, compounds were added at different concentrations in growth medium and incubated for another 72 h in a humidifying chamber at 37 °C and 5% CO2. […] EC50 values were calculated from the plot of percentage of inhibition versus inhibitor concentration using the nonlinear regression analysis software Origin 7.5SR6 (OriginLab Corp.).

EC50 (8-MG-BA, cell line 8-MG-BA): 18.9 nM
EC50 (22Rv1, 22Rv1): 14.7 nM
EC50 (59M): 13.5 nM
EC50 697: 9 nM
EC50 (769-P): 8.84 nM
EC50 (786-0, 786-O): 8.79 nM
EC50 (1321-N1, 1321N1): 12 nM
EC50 (8305C): 7.18 nM
EC50 (23132/87): 7.39 nM
EC50 (A4/Fuk): 2.23 nM
EC50 (A101D): 3.29 nM
EC50 (A 172, A172): 8.05 nM
EC50 (A204, A-204): 5.28 nM
EC50 (A253, A-253): 9.94 nM
EC50 (A549, A549): 30.8 nM
EC50 (A673, A-673): 5.83 nM
EC50 (A2058, A2058): 19.4 nM
EC50 (A2780, A2780): 10.7 nM
EC50 (A-375, A-375): 12.1 nM
EC50 (ABC-1, ABC-1): 3.02 nM
EC50 (ACC-MESO-1, ACC-MESO-1): 23.6 nM
EC50 (ACHN): 7.43 nM
EC50 (AMO1, AMO-1): 2.18 nM
EC50 (AN3-CA, cell line AN3 CA): 15.5 nM
EC50 (AU565, AU565): 6.2 nM
EC50 (BFTC-909, BFTC-909): 20.9 nM
EC50 (BHY): 7.83 nM
EC50 (BICR 6): 18.4 nM
EC50 (BICR 16): 38.8 nM
EC50 (BICR 22): 12.3 nM
EC50 (BL-41, BL-41): 1.54 nM
EC50 (BT-20, BT-20): 26.8 nM
EC50 (BT-549, BT-549): 5.76 nM
EC50 (BV-173, BV-173): 8.13 nM
EC50 (BXPC-3, BxPC-3): 15.1 nM
EC50 (C32, C32): 13 nM
EC50 (CAKI-1, Caki-1): 12 nM
EC50 (CAKI-2, cell line Caki-2): 22.8 nM
EC50 (CAL-29): 16.3 nM
EC50 (CAL-51, CAL-51): 17.9 nM
EC50 (CAL-54, CAL-54): 9.06 nM
EC50 (CAL-78): 7.82 nM
EC50 (CAL-120, CAL-120): 7.23 nM
EC50 (CAMA-1, CAMA-1): 8.61 nM
EC50 (CAPAN-1, Capan-1): 9.26 nM
EC50 (CAS-1): 16.6 nM
EC50 (CCK-81): 9.52 nM
EC50 (CCRF-CEM): 3.12 nM
EC50 (CFPAC-1, CFPAC-1): 6.34 nM
EC50 (CHL-1, CHL-1): 9.51 nM
EC50 (CHP-212, cell line CHP-212): 5.04 nM
EC50 (CMK): 3.98 nM
EC50 (CMK-11-5, CMK-11-5): 6.27 nM
EC50 (CML-T1, CML-T1): 3.65 nM
EC50 (COLO 205, COLO 205): 35.7 nM
EC50 (COLO 320, COLO-320): 19 nM
EC50 (COLO 699, COLO-699): 9.17 nM
EC50 (COLO 704, COLO-704): 5.98 nM
EC50 (COLO 775): 5.24 nM
EC50 (COLO 792): 5.11 nM
EC50 (COLO-668, COLO 668): 13.2 nM
EC50 (COLO-680N): 12.3 nM
EC50 (COLO-741, COLO 741): 11 nM
EC50 (COLO-800, cell line COLO-800): 10.1 nM
EC50 (COLO-829, COLO 829): 16.6 nM
EC50 (COR-L23, cell line COR-L23): 17.8 nM
EC50 (COR-L47, COR-L47): 9.05 nM
EC50 (COR-L88, COR-L88): 29.3 nM
EC50 (COR-L279, COR-L279): 7.34 nM
EC50 (COV318, COV318): 6.86 nM
EC50 (COV504, COV504): 7.72 nM
EC50 (COV644): 6.9 nM
EC50 (Calu-1, Calu-1): 17.6 nM
EC50 (Calu-3, Calu-3): 4.34 nM
EC50 (Calu-6, Calu-6): 17.8 nM
EC50 (Caov-3, Caov-3): 7.49 nM
EC50 (Ci-1, CI-1): 4.61 nM
EC50 (DAN-G): 8.14 nM
EC50 (DB): 3.38 nM
EC50 (DBTRG-05MG, cell line DBTRG-05MG): 34.7 nM
EC50 (DK-MG): 5.7 nM
EC50 (DLD-1, DLD-1): 6.51 nM
EC50 (DMS-79, cell line DMS 79): 13.6 nM
EC50 (DMS-114, DMS 114): 14 nM
EC50 (DMS-273, DMS 273): 6.64 nM
EC50 (DOHH-2, DOHH-2): 4.61 nM
EC50 (DU-145, DU 145): 17.5 nM
EC50 (DU-4475, DU4475): 5.05 nM
EC50 (DV-90, DV-90): 22.4 nM
EC50 (Daoy): 6.56 nM
EC50 (Detroit 562, cell line Detroit 562): 11.4 nM
EC50 (EBC-1, EBC-1): 8.25 nM
EC50 (EFM-19, EFM-19): 22.5 nM
EC50 (EFM-192A): 25.5 nM
EC50 (EM-2, EM-2): 1.63 nM
EC50 (EN): 15 nM
EC50 (EOL1, EOL-1): 6.8 nM
EC50 (ES-2, ES-2): 10.4 nM
EC50 (ESS-1, ESS-1): 8.62 nM
EC50 (FU-OV-1): 12.5 nM
EC50 (FaDu, cell line FaDu): 16.5 nM
EC50 (G-361, G-361): 2.83 nM
EC50 (G-401, G-401): 8.69 nM
EC50 (G-402, G-402): 5.03 nM
EC50 (GA-10, cell line GA-10): 15.5 nM
EC50 (GAMG, cell line GAMG): 17.7 nM
EC50 (GCIY): 6.77 nM
EC50 (GMS-10, cell line GMS-10): 11.2 nM
EC50 (GOS-3): 6.46 nM
EC50 (GP2d): 14.7 nM
EC50 (GR-M): 7.08 nM
EC50 (Granta-519, GRANTA-519): 3.79 nM
EC50 (HARA): 11.9 nM
EC50 (HCC15, HCC-15): 23.1 nM
EC50 (HCC38, HCC38): 3.99 nM
EC50 (HCC44, HCC-44): 19.7 nM
EC50 (HCC95, HCC-95): 14.1 nM
EC50 (HCC366, HCC-366): 11.1 nM
EC50 (HCC827, HCC827): 8.42 nM
EC50 (HCC1143, HCC1143): 15.1 nM
EC50 (HCC1171, HCC-1171): 27.1 nM
EC50 (HCC1187, HCC1187): 6.22 nM
EC50 (HCC1395, HCC1395): 17.5 nM
EC50 (HCC1419, HCC1419): 28.6 nM
EC50 (HCC1428, HCC1428): 396 nM
SMILES: CC(C)C[C@H](NC(=O)[C@H](Cc1ccccc1)NC(=O)c1cnccn1)B(O)O [Bortezomib]
AMAX (22Rv1): -94.313
AMAX (59M): -95.8554
AMAX (769-P): -95.8011
AMAX (786-O): -95.6334
AMAX (A4/Fuk): -96.8168
AMAX (A101D): -96.1689
AMAX (BV-173): -96.2276
AMAX (CAL-54): -95.8702
AMAX (CAL-78): -96.6244
AMAX (CAS-1): -94.9696
AMAX (CMK-11-5): -95.7224
AMAX (CML-T1): -97.037
AMAX (COLO 668): -97.3658
AMAX (COR-L88): -87.7017
AMAX (COR-L279): -96.4332
AMAX (COV318): -92.9911
AMAX (COV504): -89.7599
AMAX (DK-MG): -95.0625
AMAX (DMS 273): -96.4842
AMAX (DOHH-2): -97.4407
AMAX (EM-2): -96.8249
AMAX (GCIY): -97.1531
AMAX (GR-M): -97.3342
AMAX (HEC-6): -96.6882
AMAX (HEC-50B): -86.5583
AMAX (HEC-151): -96.6048
AMAX (HEC-265): -95.5903
AMAX (HGC-27): -96.7322
AMAX (HLC-1): -96.4119
AMAX (HMC-1-8): -96.1255
AMAX (HTK-): -96.3221
EC50 (HCC70, HCC70): 7.14 nM
